Reference: patent US6071913A, “Angiotensin II receptor antagonistic 1,2,4-triazin-5-one derivatives” (Development Center for Biotechnology, priority 1997, dated 2000)
Where two headings read alike, the source gives them in different places.

Biological target: T1, Angiotensin II Type I Receptor (Homo sapiens, UniProt P30556)
T1 construct: purchased NEN Research Products NED-014
T1 sequence (P30556 1-359): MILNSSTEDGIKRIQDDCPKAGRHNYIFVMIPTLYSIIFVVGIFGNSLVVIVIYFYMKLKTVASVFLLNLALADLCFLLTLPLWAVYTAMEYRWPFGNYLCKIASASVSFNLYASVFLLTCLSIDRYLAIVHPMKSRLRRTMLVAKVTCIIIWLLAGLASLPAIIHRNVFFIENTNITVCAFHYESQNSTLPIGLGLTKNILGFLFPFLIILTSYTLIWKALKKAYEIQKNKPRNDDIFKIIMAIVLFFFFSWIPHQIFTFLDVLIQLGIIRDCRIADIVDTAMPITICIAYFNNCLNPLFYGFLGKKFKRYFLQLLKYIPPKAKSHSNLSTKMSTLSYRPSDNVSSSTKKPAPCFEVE
Assay: Binding affinity to Angiotensin II receptor ([125I]-Sar1,Ile8-Angiotensin II radioligand, Angiotensin II Type I Receptor Kit NED-014)
Procedure: The binding affinity of the compounds of the above Examples I to IX to angiotensin II receptor was tested. The procedures and results are as follows:
Assay for the Binding Affinity to Angiotensin II Receptor
The antagonistic activity of angiotensin II receptor was assayed by Angiotensin II Type I Receptor Kit (NED-014 NENQUEST Drug Discovery System, NEN Research Products, Massachusettes, USA). The kit comprises Angiotensin II Type I Receptor Concentrate, radioligand [^125 I]-Sar^1,Ile^8 -Angiotensin II Concentrate (5 Ci), Standard Concentrate (DuP 753, […]), Diluent Concentrate, and Filter-Soak Concentrate. In accordance with the manual of
NED-014 kit, the Radioligand Concentrate, Receptor Concentrate and Filter-Soak Concentrate were diluted with deionized water, and stored under suitable temperatures (-70° C. or ambient temperature).
1. Filter Device: Hoefer FH 224 V, Hoefer Scientific Instruments Inc., California, USA; Vacuum pressure=15 in. Hg.
2. γ-Counter: Beckman 5500, Beckman Instruments Inc., […]., USA.
The reagents were thawed on ice on the day of assays. Two sets of tubes, each with two tubes, were used, one for non-specific binding (NSB) and the other for total binding (TB). A series of standard solutions (with the final concentrations of 0.5, 1, 2, 5, 10, 20, 50 and 100 nM) were prepared. The tested compounds were dissolved and diluted to 500 nM for preliminary screening. […] To the NSB tubes were added 25 μL Standard Concentrate solutions, to the TB tubes were added 25 μL Diluent Concentration, and to other tubes were added 25 μL the solutions of tested compounds. Then, 25 μL radioligand were added to each tube (including the two tubes for total counts, TC). The two TC tubes were used later for the determination of the dosage of radioligand added to each tube. To the rest tubes, 200 μL Receptor Concentration solutions were added. The tubes were allowed to stand for 3 hours to reach equibilium completely. Filter papers (Sigma Catalog No. 1822024) were soaked in the Filter-Soak solution, and placed in the filter device. The contents in the tubes were poured onto the filter papers, and washed with saline twice. The slightly dry filter papers were placed into the γ-counter and counted with two minutes counter.
The data are expressed as counts per minute (CPM). Net CPM for Specific Binding of standards or tested compounds is defined as the CPM thereof minus that of NSP and calculated by equation 1:
CPMnet =CPMtested compounds or standard -CPMnon-specific
With the above equation, the Net CPM for Specific Binding of tested compounds and standards can be obtained.
Inhibition (% B/B0) is defined as the net CPM for Specific Binding over that of standard at 0 concentration and calculated by equation 2:
Inhibition (% B/B0) of tested compound=CPMnet of standard at 0
IC50 is defined as the concentration of compound corresponding 50% inhibition. IC50 of tested compounds can be obtained with EBDA software by calculating the inhibition (% B/B0) of the tested compounds at 7 different concentrations. In addition, as the binding activity of a series of compounds is correlated with receptors, IC50 of the tested compounds can also be obtained by equation 3 established from known IC50 and inhibition (% B/B0) of the series compounds: […]

[1] = marked * Calculated, read-out: IC50 (*Calculated)
[2] = concentration of compound corresponding to 50% inhibition, EBDA software, inhibition at 7 different concentrations, 3 hours incubation, read-out: IC50

SMILES | IC50 [1] [nM] | IC50 [2] [nM]
CCCCc1nnc(C)c(=O)n1Cc1ccc(-c2ccccc2-c2nnn[nH]2)cc1 [L, 6-methyl-3-butyl-5-oxo-4-[[2'-(1H-tetrazol-5-yl)biphenyl-4yl]methyl]-1,2,4-triazine] | 310 | –
CCCCc1nc(=O)c(-c2ccccc2)nn1Cc1ccc(-c2ccccc2-c2nnn[nH]2)cc1 [N, 6-phenyl-3-butyl-5-oxo-2-[[2'-(1H-tetrazol-5-yl)biphenyl-4-yl]methyl]-1,2,4-triazine] | – | 336
CCCCc1nnc(-c2ccccc2)c(=O)n1Cc1ccc(-c2ccccc2-c2nnn[nH]2)cc1 [O, 6-phenyl-3-butyl-5-oxo-4-[[2'-(1H-tetrazol-5-yl)biphenyl-4-yl]methyl]-1,2,4-triazine] | 62.6 | –
CCCCc1nc(=O)c(CCc2ccccc2)nn1Cc1ccc(-c2ccccc2-c2nnn[nH]2)cc1 [S, 6-(2'-phenylethyl)-3-butyl-5-oxo-2-[[2'-(1H-tetrazol-5-yl)biphenyl-4-yl]methyl]-1,2,4-triazine] | – | 67.5
CCCCc1nnc(CCc2ccccc2)c(=O)n1Cc1ccc(-c2ccccc2-c2nnn[nH]2)cc1 [T, 6-(2'-phenylethyl)-3-butyl-5-oxo-4-[[2'-(1H-tetrazol-5-yl)biphenyl-4-yl]methyl]-1,2,4-triazine] | – | 55.1
CCCCc1nc(Cl)c(CCc2ccccc2)c(=O)n1Cc1ccc(-c2ccccc2-c2nnn[nH]2)cc1 [V, 2-butyl-5-(2'-phenylethyl)-6-chloro-3-[[2'-(1H-tetrazol-5-yl)biphenyl-4-yl]methyl]-4(3H)-pyrimidinone] | 72 | –
